Our source for the IC50, rat_fu and rat_CLt values is patent US20170253607A1, “LONG-ACTING HIV PROTEASE INHIBITOR” (Shionogi & Co., Ltd., priority 2014, published 2017).

A value given as a limit tells only on which side of the number the result lay.

For series [1], the target named is HIV-1 PR (Human immunodeficiency virus type 1 group M subtype B, UniProt P04585). Kind of series: HIV-protease inhibitory activity assay (FRET peptide substrate). The series is classed as biochemical. The following applies: Test Example 1. The gist of the method: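 HIV-1 PR (0.83 ng) preincubated with compounds 20 min at room temperature in 0.1 mol/L NaAc, 0.5 mol/L NaCl, 1 mmol/L EDTA, 1 mmol/L DTT, 0.05% Tween 20, pH 4.8. Cleavage of HiLyte Fluor 488/QXL 520 FRET peptide (2 μmol/L) read after 60 minutes at 485/535 nm; IC50 from four-parameter logistic fit.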

Series [2] is described as follows: Protein binding test (equilibrium dialysis, unbound ratio fu in serum). The following applies: rat serum, equilibrium dialysis 24 hours, 37° C., 2 μg/mL. The series is classed as in vitro ADME. In outline: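 Compound at 2 μg/mL in serum was dialysed against PBS for 24 hours at 37° C. Both sides were quantified by LC/MS/MS, and fu was taken as the PBS concentration divided by the serum concentration.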

A short description of series [3]: Evaluation of total body clearance (CLtot), intravenous administration. The series is classed as in vivo, Sprague-Dawley (SD). The settings on record: rat (SD), intravenous administration 0.5-10 mg/kg; CLtot = dose/AUC. The gist of the method:
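Plasma levels quantified by LC/MS/MS after intravenous tail-vein dosing (0.5-10 mg/kg, compound-dependent; n=2-3). AUC from pharmacokinetic analysis; total clearance calculated as dose/AUC.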

`COc1ccc(S(=O)(=O)N(CC(C)C)CC(O)C(Cc2ccc(NCc3ccc(-c4sc5c(c4C(=O)O)CC(C)(C)CC5)cc3)cc2)NC(=O)OC2COC3(C)OCCC23)cc1` (stereo not drawn) [Compound I-253] had an IC50 in series [1] of 2.59 nM. Further, the rat_fu in series [2] is below 0.1%. The compound also yielded a rat_CLt in series [3] of 4.65 mL/min/kg.
On the same counts, the results for `COc1ccc(S(=O)(=O)N(CC(C)C)CC(O)C(Cc2ccc(OCc3ccccc3-c3sc4c(c3C(=O)O)CC(C)(C)CC4)cc2)NC(=O)OC2COC3(C)OCC(OCc4ccccc4)C23)cc1` (stereo not drawn) [Compound I-55] are 7.34 nM, below 0.1% and 0.752 mL/min/kg.
In the same order, the values of `COc1ccc(S(=O)(=O)N(CC(C)C)CC(O)C(Cc2ccc(N3CCC(Oc4ccccc4-c4sc5c(c4C(=O)O)CC(C)(C)CC5)C3)cc2)NC(=O)OC2COC3(C)OCCC23)cc1` (stereo not drawn) [Compound I-234] are 3.5 nM, below 0.1% and 1.49 mL/min/kg.
Regarding `CC(C)CN(CC(O)C(Cc1ccc(OCc2ccccc2-c2sc3c(c2C(=O)O)CC(C)(C)CC3)cc1)NC(=O)OC1COC2(C)OCCC12)S(=O)(=O)c1ccc2nc(O)sc2c1` (stereo not drawn) [Compound I-131], half-maximal inhibition in series [1] (IC50) required 2.12 nM. The rat_fu in series [2] was below 0.1%. For the same compound, the rat_CLt in series [3] turned out to be 2.27 mL/min/kg.
In the same order, the values of `COc1ccc(S(=O)(=O)N(CC(C)C)CC(O)C(Cc2ccc(NCc3cccc(F)c3-c3sc4c(c3C(=O)O)CC(C)(C)CC4)cc2)NC(=O)OC2COC3(C)OCCC23)cc1` (stereo not drawn) [Compound I-277] are 1.94 nM, below 0.1% and 0.512 mL/min/kg.
On the same counts, the results for `COc1ccc(S(=O)(=O)N(CC(C)C)CC(O)C(Cc2ccc(OCc3ccccc3-c3sc4c(c3C(=O)O)CC(C)(C)CC4)cc2)NC(=O)OC2COC3OCCC23)cc1` (stereo not drawn) [Compound I-826] are 1.18 nM, below 0.1% and 0.823 mL/min/kg.
In the same order, the values of `CC(C)CN(C[C@@H](O)[C@H](Cc1ccc(CCc2sc3c(c2C(=O)O)CC(C)(C)CC3)cc1)NC(=O)O[C@H]1CO[C@@]2(C)OCC[C@@H]12)S(=O)(=O)c1ccc2nc(N)sc2c1` [Compound I-15] are 2.27 nM, below 0.1% and 4.86 mL/min/kg.
The compound `CC(C)CN(CC(O)C(Cc1ccc(OCCNC(=O)c2cc(Cl)cc(Cl)c2O)cc1)NC(=O)OC1COC2(C)OCCC12)S(=O)(=O)c1ccc2c(c1)OCO2` (stereo not drawn) [Compound I-168] returned an IC50 in series [1] of 1.83 nM. Also, the rat_fu in series [2] is on record as below 0.1%. Further, the rat_CLt in series [3] is 5.68 mL/min/kg.
On the same counts, the results for `COc1ccc(S(=O)(=O)N(CC(C)C)CC(O)C(Cc2ccc(OCc3nccnc3-c3ccc(-c4sc5c(c4C(=O)O)CC(C)(C)CC5)cc3)cc2)NC(=O)OC2COC3(C)OCCC23)cc1` (stereo not drawn) [Compound I-195] are 2.15 nM, below 0.1% and 6.74 mL/min/kg.
On the same counts, the results for `COc1ccc(S(=O)(=O)N(CC(C)C)CC(O)C(Cc2ccc(NCc3cc(C#N)ccc3-c3sc4c(c3C(=O)O)CC(C)(C)CC4)cc2)NC(=O)OC2COC3(C)OCCC23)cc1` (stereo not drawn) [Compound I-256] are 2.82 nM, below 0.1% and 3.83 mL/min/kg.
In series [1], `COc1ccc(S(=O)(=O)N(CC(C)C)CC(O)C(Cc2ccc(OCc3ncc(Cl)cc3-c3sc4c(c3C(=O)O)CC(C)(C)CC4)cc2)NC(=O)OC2COC3(C)OCCC23)cc1` (stereo not drawn) [Compound I-93] returned an IC50 of 0.99 nM. In addition, the rat_fu in series [2] is given as below 0.1%. In series [3], the rat_CLt turned out to be 2.22 mL/min/kg.
In the same order, the values of `COc1ccc(S(=O)(=O)N(CC(C)C)CC(O)C(Cc2ccc(NCc3ccc(C)cc3-c3sc4c(c3C(=O)O)CC(C)(C)CC4)cc2)NC(=O)OC2COC3(C)OCCC23)cc1` (stereo not drawn) [Compound I-272] are 2.11 nM, below 0.1% and 0.715 mL/min/kg.
On the same counts, the results for `COc1ccc(S(=O)(=O)N(CC(C)C)CC(O)C(Cc2ccc(N3CCC(Oc4ccccc4-c4sc5c(c4C(=O)O)CC(C)(C)CC5)C3)cc2)NC(=O)OC2COC3(C)OCCC23)cc1` (stereo not drawn) [Compound I-235] are 3.56 nM, below 0.1% and 4.05 mL/min/kg.
In series [1], `COc1ccc(S(=O)(=O)N(CC2CCCC2)CC(O)C(Cc2ccc(OCc3ccccc3-n3nc4c(c3C(=O)O)CC(C(C)(C)C)CC4)cc2)NC(=O)OC2COC3(C)OCCC23)cc1` (stereo not drawn) [Compound I-145] came in with an IC50 of 0.81 nM. Moreover, in series [2], the rat_fu is below 0.1%. The same compound registered a rat_CLt in series [3] of 1.29 mL/min/kg.
On the same counts, the results for `COc1ccc(S(=O)(=O)N(CC(C)C)CC(O)C(Cc2ccc(NCc3ccc(F)cc3-c3sc4c(c3C(=O)O)CC(C)(C)CC4)cc2)NC(=O)OC2COC3(C)OCCC23)cc1` (stereo not drawn) [Compound I-275] are 2.11 nM, below 0.1% and 2.12 mL/min/kg.
In the same order, the values of `CCCCCN(Cc1ccccc1-c1sc2c(c1C(=O)O)CC(C)(C)CC2)c1ccc(CC(NC(=O)OC2COC3(C)OCCC23)C(O)CN(CC(C)C)S(=O)(=O)c2ccc(OC)cc2)cc1` (stereo not drawn) [Compound I-338] are 4.7 nM, below 0.1% and 5.7 mL/min/kg.
On the same counts, the results for `COc1ccc(S(=O)(=O)N(CC(C)C)CC(O)C(Cc2ccc(NCC3(O)CCCC3c3sc4c(c3C(=O)O)CC(C)(C)CC4)cc2)NC(=O)OC2COC3(C)OCCC23)cc1` (stereo not drawn) [Compound I-334] are 1.91 nM, below 0.1% and 3.87 mL/min/kg.
With `COc1ccc(S(=O)(=O)N(CC(C)C)CC(O)C(Cc2ccc(NCCCc3ccccc3-c3sc4c(c3C(=O)O)CC(C)(C)CC4)cc2)NC(=O)OC2COC3(C)OCCC23)cc1` (stereo not drawn) [Compound I-260], the IC50 in series [1] came to 2.96 nM. Further, in series [2], the rat_fu is given as below 0.1%. For the same compound, the rat_CLt in series [3] worked out at 0.801 mL/min/kg.
In the same order, the values of `COc1ccc(S(=O)(=O)N(CC(C)C)CC(O)C(Cc2ccc(OCc3ccccc3-c3sc4c(c3C(=O)O)CC(C)(C)CC4(C)C)cc2)NC(=O)OC2COC3(C)OCCC23)cc1` (stereo not drawn) [Compound I-113] are 1.84 nM, below 0.1% and 1.18 mL/min/kg.
On the same counts, the results for `COc1ccc(S(=O)(=O)N(CC(C)C)CC(O)C(Cc2ccc(OCC3=C(c4sc5c(c4C(=O)O)CC(C)(C)CC5)CCCC3)cc2)NC(=O)OC2COC3(C)OCCC23)cc1` (stereo not drawn) [Compound I-243] are 4.24 nM, below 0.1% and 0.477 mL/min/kg.
`COc1ccc(S(=O)(=O)N(CC(C)C)CC(O)C(Cc2ccc(OCc3ccccc3-c3sc4c(c3C(=O)O)CC(C)(C)CC4)cc2)NC(=O)OC2COC3(CO)OCCC23)cc1` (stereo not drawn) [Compound I-99] returned an IC50 in series [1] of 0.81 nM. Also, the rat_fu in series [2] is given as below 0.1%. Besides, in series [3], the rat_CLt came to 0.576 mL/min/kg.

The IC50 is the concentration needed to halve the response being measured. A lower IC50 goes with greater potency in that assay.
